For one compound, Kd results are on record in paper PMC4383205, “Structure of a low-population intermediate state in the release of an enzyme product” (eLife, 2015).

This assay deals with T1, human lysozyme (Homo sapiens, UniProt P61626).
T1 construct: gene LYZ; wild type, expressed in Pichia pastoris (residues 1 to 130)
T1 sequence (P61626 19-148): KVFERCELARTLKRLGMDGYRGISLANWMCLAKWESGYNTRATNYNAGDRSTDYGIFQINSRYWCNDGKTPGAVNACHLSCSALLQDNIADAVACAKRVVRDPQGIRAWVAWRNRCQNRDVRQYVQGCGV
Kind of assay: SPR (Biacore single chain kinetics); also 1H-15N HSQC NMR titration and RDCs of the bound state. The format is binding. (SPR reads the build-up and loss of mass on a sensor chip optically.)

The compound `CC(=O)N[C@H]1[C@H](O[C@H]2[C@H](O)[C@@H](NC(C)=O)C(O)O[C@@H]2CO)O[C@H](CO)[C@@H](O[C@@H]2O[C@H](CO)[C@@H](O)[C@H](O)[C@H]2NC(C)=O)[C@@H]1O` (stereo partly shown) [triNAG, N,N′,N′′-Triacetylchitotriose] displayed a Kd of around 9 µM.

Broadly, the Kd is the constant that tells how readily two partners part at equilibrium.
